Data reported in article PMC10897400, “Biochemical and structural characterization of an inositol pyrophosphate kinase from a giant virus” (The EMBO Journal, 2024).

Tests used:
TvIPK (full length) = biological target: T1, TvIPK (full length) (Terrestrivirus sp., UniProt A0A3G4ZNY6); assay: X-ray crystal structure; format: binding; settings: co-crystallised with 5 mM ADP, 10 mM MgCl2
T1 construct: gene Terrestrivirus9_15; full-length, codon-optimized, E. coli BL21(DE3); N-terminal His6-MBP tag removed with TEV protease
T1 sequence (A0A3G4ZNY6 1-265): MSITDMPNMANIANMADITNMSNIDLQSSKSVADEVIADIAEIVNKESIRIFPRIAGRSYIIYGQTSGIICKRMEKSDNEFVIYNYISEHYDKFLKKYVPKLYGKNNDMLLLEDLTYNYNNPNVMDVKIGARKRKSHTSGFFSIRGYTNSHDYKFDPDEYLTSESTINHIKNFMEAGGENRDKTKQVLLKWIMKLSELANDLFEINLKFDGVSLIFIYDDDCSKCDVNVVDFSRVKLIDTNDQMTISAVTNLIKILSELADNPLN

TvIPK^17-265 = biological target: T2, TvIPK^17-265 (Terrestrivirus sp., UniProt A0A3G4ZNY6); assay: X-ray crystal structure; format: binding; settings: Cd2+ in place of Mg2+, soaked 5 mM, Pi present
T2 construct: gene Terrestrivirus9_15; truncated crystallization construct, residues 17-265, E. coli; residues 17-47 not traced; one molecule per asymmetric unit
T2 sequence (A0A3G4ZNY6 17-265): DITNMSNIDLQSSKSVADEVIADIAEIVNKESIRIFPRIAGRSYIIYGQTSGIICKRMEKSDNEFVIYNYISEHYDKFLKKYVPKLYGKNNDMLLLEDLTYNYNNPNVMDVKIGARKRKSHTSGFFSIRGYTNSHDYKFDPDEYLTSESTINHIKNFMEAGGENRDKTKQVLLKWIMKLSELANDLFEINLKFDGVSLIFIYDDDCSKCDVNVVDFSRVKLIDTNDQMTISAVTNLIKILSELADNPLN

HPLC with [gamma-33P]ATP = substrate: Nc1ncnc2c1ncn2[C@@H]1O[C@H](COP(=O)(O)OP(=O)(O)OP(=O)(O)O)[C@@H](O)[C@H]1O; assay: HPLC with [gamma-33P]ATP; format: biochemical, Terrestrivirus sp.; settings: 2 mM myo-IP6, 3.5 mM MgCl2, pH 7.2, 25 °C, labelled compound
[1] = substrate: O=P(O)(O)O[C@H]1[C@H](OP(=O)(O)O)[C@@H](OP(=O)(O)O)[C@H](OP(=O)(O)O)[C@@H](OP(=O)(O)O)[C@H]1OP(=O)(O)O; assay: HPLC of [3H]IP6 pyrophosphorylation; format: biochemical, Terrestrivirus sp.; settings: 1 mM ATP, 3.5 mM MgCl2, pH 7.2, 25 °C, creatine kinase / creatine phosphate ATP regeneration, labelled compound

Nc1ncnc2c1ncn2[C@@H]1O[C@H](COP(=O)(O)OP(=O)(O)O)[C@@H](O)[C@H]1O [ADP]
X-ray crystal structure (TvIPK (full length)): in a binary complex of full-length TvIPK plus ADP

Nc1ncnc2c1ncn2[C@@H]1O[C@H](COP(=O)(O)OP(=O)(O)NP(=O)(O)O)[C@@H](O)[C@H]1O [AMP-PNP]
X-ray crystal structure (TvIPK^17-265): We also derived crystal complexes with ATP and AMP-PNP

Nc1ncnc2c1ncn2[C@@H]1O[C@H](COP(=O)(O)OP(=O)(O)OP(=O)(O)O)[C@@H](O)[C@H]1O [ATP]
X-ray crystal structure (TvIPK^17-265; two ATP conformations): by making this substitution, we derived an ATP/TvIPK crystal complex

B1: TvIPK (full length) (Terrestrivirus sp.) (protein)
chain: MSITDMPNMANIANMADITNMSNIDLQSSKSVADEVIADIAEIVNKESIRIFPRIAGRSYIIYGQTSGIICKRMEKSDNEFVIYNYISEHYDKFLKKYVPKLYGKNNDMLLLEDLTYNYNNPNVMDVKIGARKRKSHTSGFFSIRGYTNSHDYKFDPDEYLTSESTINHIKNFMEAGGENRDKTKQVLLKWIMKLSELANDLFEINLKFDGVSLIFIYDDDCSKCDVNVVDFSRVKLIDTNDQMTISAVTNLIKILSELADNPLN
notes: full-length, codon-optimized, E. coli BL21(DE3); N-terminal His6-MBP tag removed with TEV protease
Km (HPLC with [gamma-33P]ATP): 1600 µM
Km [1]: 81 µM
